Experiments:
Assay type in all cases: in vivo
[1] = system: waterhemp (common waterhemp, Amaranthus rudis); assay: Test C postemergence, plant response rating
Method in brief: (§1)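 Both timings shared one formulation, a non-phytotoxic solvent mixture with surfactant, and a greenhouse period of 13 to 15 d. Preemergence used seeded loam/sand or silt loam soil, postemergence used 2 to 18 cm plants; visual ratings ran from 0 (no effect) to 100 (complete control).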

[2] = system: ragweed (common ragweed, Ambrosia elatior); assay: Test C postemergence, plant response rating; conditions: Ambrosia artemisiifolia, post-emergence
Method in brief: as §1

[3] = system: lambsquarters (Chenopodium album); assay: Test C postemergence, plant response rating; conditions: Chenopodium album, post-emergence
Method in brief: as §1

kochia (Kochia scoparia) [4] = assay: Test C postemergence, plant response rating; conditions: Bassia scoparia, post-emergence
Method in brief: as §1

[5] = system: nutsedge, yellow (yellow nutsedge, Cyperus esculentus); assay: Test C postemergence, plant response rating; conditions: Cyperus, post-emergence
Method in brief: as §1

[6] = system: ryegrass, Italian (Italian ryegrass, Lolium multiflorum); assay: Test C postemergence, plant response rating; conditions: Lolium multiflorum, post-emergence
Method in brief: as §1

[7] = system: crabgrass, large (large crabgrass, Digitaria sanguinalis); assay: Test C postemergence, plant response rating; conditions: Digitaria sanguinalis, post-emergence
Method in brief: as §1

[8] = system: chickweed (common chickweed, Stellaria media); assay: Test C postemergence, plant response rating; conditions: Stellaria media, post-emergence
Method in brief: as §1

[9] = system: galium (catchweed bedstraw, Galium aparine); assay: Test C postemergence, plant response rating; conditions: Galium, post-emergence
Method in brief: as §1

[10] = system: oat, wild (wild oat Avena fatua); assay: Test C postemergence, plant response rating; conditions: Avena fatua, post-emergence
Method in brief: as §1

corn (Zea mays) = assay: Test C postemergence, plant response rating; conditions: Zea mays, post-emergence
Method in brief: as §1

soybean (Glycine max) = assay: Test C postemergence, plant response rating; conditions: Glycine max, post-emergence
Method in brief: as §1

[11] = system: ragweed (common ragweed, Ambrosia elatior); assay: Test A preemergence, visual injury rating
Method in brief: (§2)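 Scoring: eye-based comparison with untreated controls, 0 for no effect through 100 for complete control, at about day 10. Treatments: directed soil spray preemergence; foliar spray postemergence on 2–10 cm plants at the one- to two-leaf stage. Medium: loam soil with sand.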

[12] = system: pigweed (Amaranthus retroflexus); assay: Test A preemergence, visual injury rating
Method in brief: as §2

[13] = system: barnyardgrass (Echinochloa crus-galli); assay: Test A preemergence, visual injury rating
Method in brief: as §2

kochia (Kochia scoparia) [14] = assay: Test A preemergence, visual injury rating
Method in brief: as §2

[15] = system: giant foxtail (Setaria faberii); assay: Test A preemergence, visual injury rating
Method in brief: as §2

[16] = system: Italian ryegrass (Lolium multiflorum); assay: Test A preemergence, visual injury rating
Method in brief: as §2

[17] = 125 g ai/ha, scale 0 to 100 (0 no effect, 100 complete control)
[18] = 62 g ai/ha, scale 0 to 100 (0 no effect, 100 complete control)
[19] = 31 g ai/ha, 0 to 100 scale, 0 no effect, 100 complete control
[20] = 125 g ai/ha, 0 to 100 scale (0 no effect, 100 complete control)

For O=C(CCC(F)(F)F)c1c(Cl)cccc1Oc1ncc(Cl)cn1 [Compound 107, 1-[2-chloro-6-[(5-chloro-2-pyrimidinyl)oxy]phenyl]-4,4,4-trifluoro-1-butanone], the “Plant response rating, Waterhemp” value ([1]; 16 g ai/ha, scale of 0 to 100) was 95, the “Plant response rating, Waterhemp” value ([1]; 31 g ai/ha, scale 0 to 100) was 98 and the “Waterhemp plant response rating” value [1, 17] was 100. The pest or weed control at 16 g/ha ([2]; 16 g ai/ha, scale of 0 to 100) was 25%, the pest or weed control at 31 g/ha ([2]; 31 g ai/ha, scale 0 to 100) was 35% and the pest or weed control at 62 g/ha [2, 18] was 35%. The pest or weed control at 125 g/ha [2, 17] was 45%, the pest or weed control at 16 g/ha ([3]; 16 g ai/ha, scale of 0 to 100) was 80% and the pest or weed control at 31 g/ha ([3]; 31 g ai/ha, scale 0 to 100) was 85%. The pest or weed control at 62 g/ha [3, 18] was 100%, the pest or weed control at 125 g/ha [3, 17] was 100% and the pest or weed control at 16 g/ha (kochia (Kochia scoparia) [4]; 16 g ai/ha, scale of 0 to 100) was 80%. The pest or weed control at 31 g/ha (kochia (Kochia scoparia) [4]; 31 g ai/ha, scale 0 to 100) was 85%, the pest or weed control at 62 g/ha (kochia (Kochia scoparia) [4]; [18]) was 95% and the pest or weed control at 125 g/ha (kochia (Kochia scoparia) [4]; [17]) was 98%. The pest or weed control at 16 g/ha ([5]; 16 g ai/ha, scale of 0 to 100) was 5%, the pest or weed control at 31 g/ha ([5]; 31 g ai/ha, scale 0 to 100) was 5% and the pest or weed control at 62 g/ha [5, 18] was 5%. For the same compound, the pest or weed control at 125 g/ha [5, 17] was 5%, the pest or weed control at 16 g/ha ([6]; 16 g ai/ha, scale of 0 to 100) was 5% and the pest or weed control at 31 g/ha ([6]; 31 g ai/ha, scale 0 to 100) was 35%. For the same compound, the pest or weed control at 62 g/ha [6, 18] was 20%, the pest or weed control at 125 g/ha [6, 17] was 50% and the pest or weed control at 16 g/ha ([7]; 16 g ai/ha, scale of 0 to 100) was 10%. The pest or weed control at 31 g/ha ([7]; 31 g ai/ha, scale 0 to 100) was 10%, the pest or weed control at 62 g/ha [7, 18] was 30% and the pest or weed control at 125 g/ha [7, 17] was 60%. It also gave a pest or weed control at 16 g/ha ([8]; 16 g ai/ha, scale of 0 to 100) of 80%, a pest or weed control at 31 g/ha ([8]; 31 g ai/ha, scale 0 to 100) of 90% and a pest or weed control at 62 g/ha [8, 18] of 98%. The pest or weed control at 125 g/ha [8, 17] was 100%, the pest or weed control at 16 g/ha ([9]; 16 g ai/ha, scale of 0 to 100) was 75% and the pest or weed control at 31 g/ha ([9]; 31 g ai/ha, scale 0 to 100) was 80%. It also gave a pest or weed control at 62 g/ha [9, 18] of 90%, a pest or weed control at 125 g/ha [9, 17] of 95% and a pest or weed control at 16 g/ha ([10]; 16 g ai/ha, scale of 0 to 100) of 5%. For the same compound, the pest or weed control at 31 g/ha ([10]; 31 g ai/ha, scale 0 to 100) was 40%, the pest or weed control at 62 g/ha [10, 18] was 35% and the pest or weed control at 125 g/ha [10, 17] was 45%. For the same compound, the Corn plant response rating (crop injury, 0 = no effect, 100 = complete kill) at 16 g/ha (corn (Zea mays); 16 g ai/ha, scale of 0 to 100) was 10%, the Corn plant response rating (crop injury, 0 = no effect, 100 = complete kill) at 31 g/ha (corn (Zea mays); 31 g ai/ha, scale 0 to 100) was 20% and the plant injury at 62 g/ha (corn (Zea mays); [18]) was 20%. It also gave a plant injury at 125 g/ha (corn (Zea mays); [17]) of 30%, a plant injury at 16 g/ha (soybean (Glycine max); 16 g ai/ha, scale of 0 to 100) of 50% and a plant injury at 31 g/ha (soybean (Glycine max); 31 g ai/ha, scale 0 to 100) of 40%. For the same compound, the plant injury at 62 g/ha (soybean (Glycine max); [18]) was 95%, the plant injury at 125 g/ha (soybean (Glycine max); [17]) was 95% and the “Plant response rating, Ragweed” value [11, 19] was 0. For the same compound, the “Plant response rating, Ragweed” value [11, 20] was 20, the “Plant response rating, Pigweed” value [12, 19] was 100 and the “Plant response rating, Pigweed” value [12, 20] was 100. For the same compound, the “Plant response rating, Barnyardgrass” value [13, 19] was 90, the pest or weed control at 125 g/ha ([13]; Echinochloa crus-galli, pre-emergence, 240 h, 125 g ai/ha, 0 to 100 scale (0 no effect, 100 complete control), read-out: Barnyardgrass plant response rating) was 100% and the “Plant response rating, Kochia” value (kochia (Kochia scoparia) [14]; [19]) was 90. The “Plant response rating, Kochia” value (kochia (Kochia scoparia) [14]; [20]) was 100, the “Plant response rating, Foxtail, Giant” value [15, 19] was 100 and the “Plant response rating, Foxtail, Giant” value [15, 20] was 100. For the same compound, the “Plant response rating, Ryegrass, Italian” value [16, 19] was 30 and the “Plant response rating, Ryegrass, Italian” value [16, 20] was 80.

From patent US11053204B2, “Pyrimidinyloxy benzene derivatives as herbicides” (FMC Corporation, priority 2015, dated 2021)
